Laboratory results as given in article PMC3984115 (PLoS ONE, 2014).
Values joined by “and” are separate entries in the source; they are usually repeats but may differ in a detail not shown here. Equal values may be shown once. Read-outs that look alike come from different tables or passages of the source. Where no end group is shown, it is not given here.

How the values were obtained:
[1] = tested on: nAChRs in monkey adrenal chromaffin cells; experiment: Agonist-evoked currents, perforated-patch patch-clamp, monkey adrenal chromaffin cells; assay type: cell-based, monkey (Macaca mulatta); conditions: for current amplitude (choline comparison cells): 10 mM choline versus 300 μM ACh in the same cells
[2] = tested on: release of dopamine from dopaminergic terminals of rat striatal neurons; conditions: cited from earlier work
[3] = tested on: release of dopamine from dopaminergic terminals of mouse striatal neurons; conditions: cited from earlier work
[4] = target: T1, human α6/α3β4 nAChR (Homo sapiens, UniProt P30926+P32297+Q15825); assay type: cell-based
T1 construct: expressed in transfected cells; host or cells: Xenopus laevis oocytes (cRNA injection, 1:1 ratio)
T1 sequence (P30926 whole entry, looked up): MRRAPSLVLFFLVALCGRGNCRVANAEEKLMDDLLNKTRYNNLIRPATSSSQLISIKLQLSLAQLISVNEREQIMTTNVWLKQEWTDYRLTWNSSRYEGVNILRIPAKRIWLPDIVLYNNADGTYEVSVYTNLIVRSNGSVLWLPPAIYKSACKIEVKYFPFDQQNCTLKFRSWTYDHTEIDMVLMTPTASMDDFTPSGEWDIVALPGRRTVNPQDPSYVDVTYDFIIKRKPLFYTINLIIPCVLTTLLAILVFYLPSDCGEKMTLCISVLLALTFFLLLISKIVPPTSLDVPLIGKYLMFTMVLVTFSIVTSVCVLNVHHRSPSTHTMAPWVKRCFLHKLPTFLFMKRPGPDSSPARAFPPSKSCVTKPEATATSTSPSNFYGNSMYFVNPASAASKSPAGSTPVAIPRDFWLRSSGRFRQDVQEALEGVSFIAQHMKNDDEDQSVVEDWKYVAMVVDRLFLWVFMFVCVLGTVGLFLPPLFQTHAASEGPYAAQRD
T1 sequence (P32297 whole entry, looked up): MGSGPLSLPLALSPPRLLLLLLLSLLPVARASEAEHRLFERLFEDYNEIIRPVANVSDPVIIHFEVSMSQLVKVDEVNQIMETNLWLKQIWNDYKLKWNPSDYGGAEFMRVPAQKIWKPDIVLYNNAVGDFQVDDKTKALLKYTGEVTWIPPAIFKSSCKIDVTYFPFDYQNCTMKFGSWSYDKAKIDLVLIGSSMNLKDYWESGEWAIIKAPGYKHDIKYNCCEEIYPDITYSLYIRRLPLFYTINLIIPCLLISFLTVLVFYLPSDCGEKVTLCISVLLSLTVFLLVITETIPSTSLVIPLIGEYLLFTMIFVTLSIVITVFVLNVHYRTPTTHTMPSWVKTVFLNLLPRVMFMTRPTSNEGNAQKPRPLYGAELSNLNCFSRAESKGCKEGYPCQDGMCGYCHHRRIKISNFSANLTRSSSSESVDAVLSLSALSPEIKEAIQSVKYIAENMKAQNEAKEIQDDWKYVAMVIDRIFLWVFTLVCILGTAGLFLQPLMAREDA
T1 sequence (Q15825 whole entry, looked up): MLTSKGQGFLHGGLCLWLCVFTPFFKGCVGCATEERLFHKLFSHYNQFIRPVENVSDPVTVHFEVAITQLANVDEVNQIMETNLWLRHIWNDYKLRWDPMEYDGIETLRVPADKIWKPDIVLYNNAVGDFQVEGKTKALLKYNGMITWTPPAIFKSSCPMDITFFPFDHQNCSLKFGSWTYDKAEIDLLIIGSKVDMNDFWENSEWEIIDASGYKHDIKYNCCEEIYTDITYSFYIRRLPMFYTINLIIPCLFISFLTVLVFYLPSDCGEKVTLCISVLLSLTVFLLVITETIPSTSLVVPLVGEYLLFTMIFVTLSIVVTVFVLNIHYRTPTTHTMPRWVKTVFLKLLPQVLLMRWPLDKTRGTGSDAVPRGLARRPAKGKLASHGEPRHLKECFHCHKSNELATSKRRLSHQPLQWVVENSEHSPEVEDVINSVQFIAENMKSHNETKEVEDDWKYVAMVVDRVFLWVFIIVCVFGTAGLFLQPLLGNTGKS

[5] = tested on: heteromeric receptor subtypes that contain the β2 subunit; parameters: method as in PMID 10692507; conditions: β2-containing heteromeric receptors; ref [38]; cited from earlier work
[6] = tested on: M. mulatta α7 nAChRs; conditions: heterologously expressed M. mulatta α7; ref [37]; cited from earlier work

CC(=O)OCC[N+](C)(C)C [ACh, acetylcholine]
current amplitude (5-I-A-85380 comparison cells) ([1]; 100 μM 5-I-A-85380 versus 300 μM ACh in the same cells, n = 4, ± S.E.M.): 657± 97 pA | current density ([1]; 100 μM 5-I-A-85380 versus 300 μM ACh in the same cells, n = 4, ± S.E.M., difference not statistically significant, p = 0.0625): 149±22 pA/pF | peak current amplitude ([1]; 300 μM ACh, mean ± S.D.M, n = 18, holding potential −80 mV, 200 ms pulses): 865 ± 387 pA | current amplitude (choline comparison cells) ([1]; n = 4, ± S.E.M.): 1245±238 pA

α-Ctx MII (GCCSNPVCHLEHSNLC; ends and bridges not checked; cysteine pairing not given here; UniProt P56636 49-64, looked up)
sensitivity of dopamine release to toxin, in words [2]: sensitive | sensitivity of dopamine release to toxin, in words [3]: sensitive

Ic1cncc(OC[C@@H]2CCN2)c1 [5-I-A-85380]
efficacy versus 300 μM ACh, in words [1]: more efficacious than 300 μM ACh | response to agonist, in words [1]: responded | current amplitude (5-I-A-85380 comparison cells) ([1]; n = 4): 1088±120 pA | current amplitude relative to ACh (printed "% larger than the currents evoked by ACh") ([1]; n = 4): 170±16% | current density ([1]; n = 4): 256±28 pA/pF | current amplitude as % of that produced by 300 μM ACh in the same cells [4]: 100±12.1% and 100±12% | efficacy versus 300 μM ACh, in words [4]: as efficacious as 300 μM ACh | affinity in words [5]: high affinity

C[N+](C)(C)CCO [choline]
current amplitude (choline comparison cells) ([1]; n = 4, ± S.E.M.): 21±4 pA | current amplitude as % of response evoked by 300 μM ACh in the same cells ([1]; 10 mM choline, n = 4, ± S.E.M., holding potential −80 mV): 1.7±0.1% | response to agonist, in words ([1]; cells with currents evoked by acetylcholine): relatively unresponsive | agonist activity in words [6]: full agonist
